Entries after “also recorded” stand apart in the source; their conditions may differ. Ends that are not written are not given here.
Columns and labels:
Format in all cases: cell-based, Human
CCD-966SK cells = test: Transwell migration assay, CCD-966SK fibroblast cells; details: 50 μg/ml peptide, 24-hour culture, P<0.01
Experimental: (§1) Human keratinocyte HaCaT and skin fibroblast CCD-966SK cells were cultured in Dulbecco's Modified Eagle Medium (DMEM) containing 10% (v/v) FBS and 1% (v/v) antibiotics in 5% CO2 at 37° C.
(§2) HaCaT cells (5×10^4) or CCD-966SK cells (5×10^3) in 0.25 ml serum-free DMEM were seeded into the upper chamber with an 8-μm pore size membrane (Corning, USA) and 0.5 ml serum free DMEM with or without 50 μg/ml Peptide NO. 9 were loaded to the lower chamber in 24-well culture plate. After 24 hours incubation, cells were fixed and stained with 0.5% (w/v) crystal violet (Sigma) containing 20% (v/v) methanol. The number of migrated cells from 5 random fields was counted under the microscope. Results obtained were analyzed by student's t-test and graphed as mean±SD.

HaCaT cells = test: Transwell migration assay, HaCaT keratinocyte cells; details: 50 μg/ml peptide, 24-hour culture, P<0.05
Experimental: as §1, §2

CCD966SK cells = test: MTT assay, viability of CCD966SK cells; details: 50 μg/ml peptide
Experimental: as §1
(§3) HaCaT keratinocyte cells (3×10^3, each cell line) in 100 μl complete DMEM were seeded in 96-well plates with or without 50 μg/ml Peptide NO. 9, respectively. Ten microliters of 5 mg/ml 3-(4,5-dimethyl-2-thiazolyl)-2,5-diphenyl-2H-tetrazolium bromide solution (MTT; Sigma) was added to each well for the indicated times and incubated at 37° C. for 3 hours, after which 100 μl 10% SDS in 0.01 N HCl was added to dissolve the MTT formazan crystals. The resultant optical density was measured spectrophotometrically at dual wavelengths, 550 and 630 nm.

HaCaT keratinocyte cells = test: MTT assay, viability of HaCaT keratinocyte cells; details: 50 μg/ml peptide
Experimental: as §1, §3

## HTSTEAK [Peptide NO. 9]
CCD-966SK cells
  CCD966SK fibroblast cell migration: enhanced CCD966SK fibroblast cell migration; also recorded: significant efficacy in enhancing HaCaT CCD966SK fibroblast cell migration
HaCaT cells
  HaCaT keratinocyte cell migration: enhanced HaCaT keratinocyte cell migration; also recorded: significant efficacy in enhancing HaCaT keratinocyte cell migration; also recorded: effect in enhancement of keratinocyte cell migration of HaCaT cells
CCD966SK cells; 24 hours
  viability of CCD966SK cells: did not significantly affect viability of CCD966SK cells
CCD966SK cells; 48 hours
  viability of CCD966SK cells: did not significantly affect viability of CCD966SK cells
CCD966SK cells; 72 hours
  viability of CCD966SK cells: did not significantly affect viability of CCD966SK cells
HaCaT keratinocyte cells; 24-hour culture
  viability of HaCaT keratinocyte cells: did not significantly affect viability of HaCaT cells
HaCaT keratinocyte cells; 48-hour culture
  viability of HaCaT keratinocyte cells: did not significantly affect viability of HaCaT cells
HaCaT keratinocyte cells; 72-hour culture
  viability of HaCaT keratinocyte cells: did not significantly affect viability of HaCaT cells
